# Laboratory results: PubChem BioAssay AID2060883 (Molecular Pharmacology Branch, DTP, NCI, 2025)
# Values joined by “and” are separate entries in the source; they are usually repeats but may differ in a detail not shown here. Identical values can stand only once.
# Test system: 843782-103-R-J1-PDC complex spheroid viability
# Test: Anticancer human tumor 843782-103-R-J1-PDC patient-derived lung adenocarcinoma cell line growth inhibition [RAS]
# Details: for viability, T/C: stronger effect = lower value
# How it was run: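 Agents were tested in combination matrices in half-log decrements from a top concentration at or near clinical Cmax (10 microM if undetermined). Targets were multi-cell spheroids of tumour lines plus HUVEC and MSC stromal cells.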
# [1] = curve of first compound, second compound 0.0316 µM
# [2] = curve of first compound, second compound 0.1 µM
# [3] = curve of first compound, second compound 0.316 µM
# [4] = curve of first compound, second compound 1 µM
# [5] = curve of first compound, second compound 3.16 µM
# [6] = curve of first compound, second compound 10 µM
# [7] = second compound 0.0316 µM, first compound 0.0316 µM
# [8] = second compound 0.0316 µM, first compound 0.1 µM
# [9] = second compound 0.1 µM, first compound 0.0316 µM
# [10] = second compound 0.1 µM, first compound 0.1 µM
# [11] = second compound 0.316 µM, first compound 0.0316 µM
# [12] = second compound 0.316 µM, first compound 0.1 µM
# [13] = second compound 1 µM, first compound 0.0316 µM
# [14] = second compound 1 µM, first compound 0.1 µM
# [15] = second compound 3.16 µM, first compound 0.0316 µM
# [16] = second compound 3.16 µM, first compound 0.1 µM
# [17] = second compound 10 µM, first compound 0.0316 µM
# [18] = second compound 10 µM, first compound 0.1 µM
# 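Further: viability read after seven days of compound exposure.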
smiles,measurement,setting,value
CC(C)n1nc(-c2ccc3oc(N)nc3c2)c2c(N)ncnc21 + C#Cc1c(F)ccc2cc(O)cc(-c3ncc4c(N5CC6CCC(C5)N6)nc(OCC56CCCN5CC(F)C6)nc4c3F)c12,IC50,[1],38.3 nM
same,IC50,[2],24.4 nM
same,IC50,[3],20.8 nM
same,IC50,[4],18.9 nM
same,IC50,[5],6.61 nM
same,IC50,[6],0.794 nM
same,"viability, T/C","second compound 0.0316 µM, first compound 0.000316 µM",108%
same,"viability, T/C","second compound 0.0316 µM, first compound 0.001 µM",93.9%
same,"viability, T/C","second compound 0.0316 µM, first compound 0.00316 µM",97.5%
same,"viability, T/C","second compound 0.0316 µM, first compound 0.01 µM",70.8%
same,"viability, T/C",[7],55.1%
same,"viability, T/C",[8],31.2%
same,"viability, T/C","second compound 0.1 µM, first compound 0.000316 µM",105%
same,"viability, T/C","second compound 0.1 µM, first compound 0.001 µM",95.7%
same,"viability, T/C","second compound 0.1 µM, first compound 0.00316 µM",93.8%
same,"viability, T/C","second compound 0.1 µM, first compound 0.01 µM",72.5%
same,"viability, T/C",[9],42.8%
same,"viability, T/C",[10],29.8%
same,"viability, T/C","second compound 0.316 µM, first compound 0.000316 µM",101%
same,"viability, T/C","second compound 0.316 µM, first compound 0.001 µM",91.2%
same,"viability, T/C","second compound 0.316 µM, first compound 0.00316 µM",91.2%
same,"viability, T/C","second compound 0.316 µM, first compound 0.01 µM",66.3%
same,"viability, T/C",[11],40.6%
same,"viability, T/C",[12],26%
same,"viability, T/C","second compound 1 µM, first compound 0.000316 µM",99.7%
same,"viability, T/C","second compound 1 µM, first compound 0.001 µM",87.8%
same,"viability, T/C","second compound 1 µM, first compound 0.00316 µM",81.7%
same,"viability, T/C","second compound 1 µM, first compound 0.01 µM",62.1%
same,"viability, T/C",[13],39.6%
same,"viability, T/C",[14],21.8%
same,"viability, T/C","second compound 3.16 µM, first compound 0.000316 µM",93%
same,"viability, T/C","second compound 3.16 µM, first compound 0.001 µM",70%
same,"viability, T/C","second compound 3.16 µM, first compound 0.00316 µM",71.8%
same,"viability, T/C","second compound 3.16 µM, first compound 0.01 µM",39.1%
same,"viability, T/C",[15],25.3%
same,"viability, T/C",[16],19.4%
same,"viability, T/C","second compound 10 µM, first compound 0.000316 µM",63.3%
same,"viability, T/C","second compound 10 µM, first compound 0.001 µM",41%
same,"viability, T/C","second compound 10 µM, first compound 0.00316 µM",38.5%
same,"viability, T/C","second compound 10 µM, first compound 0.01 µM",28%
same,"viability, T/C",[17],18.8%
same,"viability, T/C",[18],10.6%
CC1(O)CCCC1n1c(=O)c(C(F)F)cc2cnc(NC3CCN(S(C)(=O)=O)CC3)nc21 (configuration not stated) + CCn1c(-c2cc(N3CCN(C)CC3)cnc2C(C)OC)c2c3cc(ccc31)-c1csc(n1)CC(NC(=O)C1CC1C)C(=O)N1CCCC(N1)C(=O)OCC(C)(C)C2,IC50,"curve of first compound, second compound 0.000949 µM",123 nM
same,IC50,"curve of first compound, second compound 0.003 µM",52.7 nM
same,IC50,"curve of first compound, second compound 0.00949 µM",< 31.6 nM
same,IC50,"curve of first compound, second compound 0.03 µM",< 31.6 nM
same,IC50,"curve of first compound, second compound 0.0949 µM",< 31.6 nM
same,IC50,"curve of first compound, second compound 0.3 µM",< 31.6 nM
same,"viability, T/C","second compound 0.000949 µM, first compound 0.0316 µM",68.6%
same,"viability, T/C","second compound 0.000949 µM, first compound 0.1 µM",57%
same,"viability, T/C","second compound 0.000949 µM, first compound 0.316 µM",18.5%
same,"viability, T/C","second compound 0.000949 µM, first compound 1 µM",14.9%
same,"viability, T/C","second compound 0.000949 µM, first compound 3.16 µM",11.1%
same,"viability, T/C","second compound 0.000949 µM, first compound 10 µM",2.8%
same,"viability, T/C","second compound 0.003 µM, first compound 0.0316 µM",58.1%
same,"viability, T/C","second compound 0.003 µM, first compound 0.1 µM",42.5%
same,"viability, T/C","second compound 0.003 µM, first compound 0.316 µM",16.6%
same,"viability, T/C","second compound 0.003 µM, first compound 1 µM",17.5%
same,"viability, T/C","second compound 0.003 µM, first compound 3.16 µM",13.2%
same,"viability, T/C","second compound 0.003 µM, first compound 10 µM",2.6%
same,"viability, T/C","second compound 0.00949 µM, first compound 0.0316 µM",37.4%
same,"viability, T/C","second compound 0.00949 µM, first compound 0.1 µM",24.2%
same,"viability, T/C","second compound 0.00949 µM, first compound 0.316 µM",14.6%
same,"viability, T/C","second compound 0.00949 µM, first compound 1 µM",15.8%
same,"viability, T/C","second compound 0.00949 µM, first compound 3.16 µM",13.1%
same,"viability, T/C","second compound 0.00949 µM, first compound 10 µM",3.41%
same,"viability, T/C","second compound 0.03 µM, first compound 0.0316 µM",18.4%
same,"viability, T/C","second compound 0.03 µM, first compound 0.1 µM",15.7%
same,"viability, T/C","second compound 0.03 µM, first compound 0.316 µM",13%
same,"viability, T/C","second compound 0.03 µM, first compound 1 µM",12.7%
same,"viability, T/C","second compound 0.03 µM, first compound 3.16 µM",13.5%
same,"viability, T/C","second compound 0.03 µM, first compound 10 µM",2.9%
same,"viability, T/C","second compound 0.0949 µM, first compound 0.0316 µM",15.8%
same,"viability, T/C","second compound 0.0949 µM, first compound 0.1 µM",13.8%
same,"viability, T/C","second compound 0.0949 µM, first compound 0.316 µM",10.8%
same,"viability, T/C","second compound 0.0949 µM, first compound 1 µM",11.4%
same,"viability, T/C","second compound 0.0949 µM, first compound 3.16 µM",12%
same,"viability, T/C","second compound 0.0949 µM, first compound 10 µM",3.5%
same,"viability, T/C","second compound 0.3 µM, first compound 0.0316 µM",14.1%
same,"viability, T/C","second compound 0.3 µM, first compound 0.1 µM",13.6%
same,"viability, T/C","second compound 0.3 µM, first compound 0.316 µM",9.45%
same,"viability, T/C","second compound 0.3 µM, first compound 1 µM",10%
same,"viability, T/C","second compound 0.3 µM, first compound 3.16 µM",9.83%
same,"viability, T/C","second compound 0.3 µM, first compound 10 µM",3.16%
CC1(C)CCC(Nc2ncc(C(F)(F)F)c(-c3c[nH]c4c(P(C)(C)=O)c(C#N)ccc34)n2)CN1 (configuration not stated),"viability, T/C",compound 0.000949 µM,107% (2×) and 108% and 102%
same,"viability, T/C",compound 0.003 µM,93.6% [middle of 4 runs]
same,"viability, T/C",compound 0.00949 µM,58.3% [middle of 4 runs]
same,"viability, T/C",compound 0.0949 µM,22.4% [middle of 4 runs]
same,"viability, T/C",compound 0.3 µM,19.5% [middle of 4 runs]
same,IC50,curve of compound,13.6 nM [middle of 4 runs]
CC(C)NCC(C(=O)N1CCN(c2ncnc3c2C(C)CC3O)CC1)c1ccc(Cl)cc1 (configuration not stated) + C#Cc1c(F)ccc2cc(O)cc(-c3ncc4c(N5CC6CCC(C5)N6)nc(OCC56CCCN5CC(F)C6)nc4c3F)c12,IC50,[1],1870 nM
same,IC50,[2],1720 nM
same,IC50,[3],1560 nM
same,IC50,[4],930 nM
same,IC50,[5],390 nM
same,IC50,[6],160 nM
same,"viability, T/C",[7],99.3%
same,"viability, T/C",[8],99.2%
same,"viability, T/C","second compound 0.0316 µM, first compound 0.316 µM",90.4%
same,"viability, T/C","second compound 0.0316 µM, first compound 1 µM",71.6%
same,"viability, T/C","second compound 0.0316 µM, first compound 3.16 µM",32.1%
same,"viability, T/C","second compound 0.0316 µM, first compound 10 µM",13.8%
same,"viability, T/C",[9],106%
same,"viability, T/C",[10],99.1%
same,"viability, T/C","second compound 0.1 µM, first compound 0.316 µM",94.3%
same,"viability, T/C","second compound 0.1 µM, first compound 1 µM",69.9%
same,"viability, T/C","second compound 0.1 µM, first compound 3.16 µM",28%
same,"viability, T/C","second compound 0.1 µM, first compound 10 µM",13.5%
same,"viability, T/C",[11],103%
same,"viability, T/C",[12],95.1%
same,"viability, T/C","second compound 0.316 µM, first compound 0.316 µM",86.9%
same,"viability, T/C","second compound 0.316 µM, first compound 1 µM",69.2%
same,"viability, T/C","second compound 0.316 µM, first compound 3.16 µM",21.4%
same,"viability, T/C","second compound 0.316 µM, first compound 10 µM",13.7%
same,"viability, T/C",[13],100%
same,"viability, T/C",[14],94.6%
same,"viability, T/C","second compound 1 µM, first compound 0.316 µM",79.2%
same,"viability, T/C","second compound 1 µM, first compound 1 µM",48%
same,"viability, T/C","second compound 1 µM, first compound 3.16 µM",21.2%
same,"viability, T/C","second compound 1 µM, first compound 10 µM",10.3%
same,"viability, T/C",[15],84.6%
same,"viability, T/C",[16],75%
same,"viability, T/C","second compound 3.16 µM, first compound 0.316 µM",53.3%
same,"viability, T/C","second compound 3.16 µM, first compound 1 µM",31.8%
same,"viability, T/C","second compound 3.16 µM, first compound 3.16 µM",13%
same,"viability, T/C","second compound 3.16 µM, first compound 10 µM",7.27%
same,"viability, T/C",[17],62.8%
same,"viability, T/C",[18],55%
same,"viability, T/C","second compound 10 µM, first compound 0.316 µM",42.3%
same,"viability, T/C","second compound 10 µM, first compound 1 µM",20%
same,"viability, T/C","second compound 10 µM, first compound 3.16 µM",10.1%
same,"viability, T/C","second compound 10 µM, first compound 10 µM",4.52%
